These results are taken from article PMC4132908, “Genome-wide annotation and functional identification of aphid GLUT-like sugar transporters” (BMC Genomics, 2014).

Some results are limits rather than exact numbers.

The assay deals with T1, ApST4 (A. pisum sugar transporter 4) (Acyrthosiphon pisum, UniProt A0A8R2H6Y5).
T1 sequence (A0A8R2H6Y5 64-552): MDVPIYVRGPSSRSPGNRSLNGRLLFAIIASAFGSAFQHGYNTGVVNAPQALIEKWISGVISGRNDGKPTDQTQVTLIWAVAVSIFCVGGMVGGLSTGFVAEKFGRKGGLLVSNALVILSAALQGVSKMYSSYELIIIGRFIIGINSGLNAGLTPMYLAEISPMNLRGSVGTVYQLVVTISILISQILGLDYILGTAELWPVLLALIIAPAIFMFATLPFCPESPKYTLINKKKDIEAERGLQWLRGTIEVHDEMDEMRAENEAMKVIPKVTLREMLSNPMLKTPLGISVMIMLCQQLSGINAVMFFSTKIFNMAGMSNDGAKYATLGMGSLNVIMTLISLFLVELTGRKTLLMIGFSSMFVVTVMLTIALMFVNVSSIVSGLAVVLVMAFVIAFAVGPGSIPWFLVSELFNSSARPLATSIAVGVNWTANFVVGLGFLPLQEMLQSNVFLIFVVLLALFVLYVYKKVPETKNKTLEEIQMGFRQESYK
Nature of the assay: competition with […]-fructose uptake in whole yeast cells. The format is cell-based. The note with it: 50 mM 14C-fructose; 100 mM unlabelled competitor; pH 7.0; 30 °C; 10 min.

With `OC[C@H]1OC(O)[C@H](O)[C@@H](O)[C@H]1O` (some centres unmarked) [galactose], the “% reduction of 14C-fructose uptake at 100 mM” value was ~ 21%.

`OC[C@H]1OC(O)[C@@H](O)[C@@H](O)[C@@H]1O` (some centres unmarked) [mannose]: the “% reduction of 14C-fructose uptake at 100 mM” value was greater than 50%.
